Measured values as given in PMC9782626, “Copper(II) Complexes of 5–Fluoro–Salicylaldehyde: Synthesis, Characterization, Antioxidant Properties, Interaction with DNA and Serum Albumins” (Molecules, 2022).
Read-outs that look alike come from different tables or passages of the source.

How the values were obtained:
[1] = ABTS radical cation scavenging assay; type: biochemical; conditions: compound 0.1 mM, 1 min
Description: (§1) For the above reasons, the antioxidant ability of 5–F–saloH and Cu(II) complexes 1–5 has been evaluated via their scavenging activity towards DPPH and ABTS radicals, as well as the ability to reduce H2O2, and in comparison with that of well-known antioxidant agents such as nordihydroguaiaretic acid (NDGA), butylated hydroxytoluene (ΒHΤ), 6–hydroxy–2,5,7,8–tetramethylchromane–2–carboxylic acid (trolox) and L–ascorbic acid (these are the most commonly used standard reference antioxidant agents). The DPPH-radical assay was developed in the 1950s and this method has been used to assess the antioxidant capacity of several metal complexes. The DPPH–scavenging ability of compounds has often been related to their ability to prevent ageing, cancer and inflammation. The ability of a compound to scavenge the cationic ABTS radicals (ABTS^+●) has been considered a measure of its total antioxidant activity. Further, hydrogen peroxide has the ability to penetrate biological membranes and, although it is not very reactive itself, it can sometimes be toxic since it may give rise to hydroxyl radicals in cells. For this reason, the removal of H2O2 is very important for the protection of living systems. When a compound is incubated with H2O2 using a peroxidase assay system, the loss of H2O2 can be measured.
(§2) S1 Antioxidant activity assay
The antioxidant activity of the compounds was evaluated via their ability to scavenge in vitro free radicals such as DPPH and ABTS and to reduce H 2O2. All the experiments were carried out at least in triplicate and the standard deviation of absorbance was less than 10% of the mean. […]
S1.2 Assay of radical cation ABTS-scavengin g activity
The ABTS assay was performed to determine the activity of the compounds to scavenge the radical cation ABTS. Initially, a water solution of ABTS was prepared (2 mM). ABTS radical cation (ABTS+·) was produced by the reaction of ABTS stock solution with potassium persulfate (0.17 mM) and the mixture was stored in the dark at room temperature for 12-16 h before its use. The ABTS was oxidized incompletely because the stoichiometric reaction ratio of ABTS and potassium persulfate is 1:0.5. The absorbance became maximal and stable only after more than 6 h of reaction although the oxidation of the ABTS started immediately. The radical was stable in this form for more than 2 days when allowed to stand in the dark at room temperature. Afterwards, the ABTS+· solution was diluted in ethanol to an absorbance of 0.70 at 734 nm and 10 μL of diluted compounds or standards (0.1 mM) in DMSO were added. The absorbance was recorded out exactly 1 min after init ial m ix in g [S 1]. The ABTS radical scavenging act ivit y was expressed as the percentage inhibition of the absorbance of the initial ABTS solution (ABTS%). Trolox was used as an appropriate standard. […]

[2] = DPPH radical scavenging assay; type: biochemical; conditions: compound 0.1 mM
Description: as §1, §2
(§3) The antioxidant activity of the compounds was evaluated via their ability to scavenge in vitro free radicals such as DPPH and ABTS and to reduce H 2O2. All the experiments were carried out at least in triplicate and the standard deviation of absorbance was less than 10% of the mean.
S1.1 Determination of the reducing activity of the radical DPPH
To an ethanolic solution of DPPH (0.1 mM) an equal volume solution of the compounds (0.1 mM) in ethanol was added. Absolute ethanol was also used as control solution. The absorbance at 517 nm was recorded at room temperature after 30 and 60 min, in order to examine the possible existence of a potential time-dependence of the DPPH radical scavenging act iv ity [S 1]. The DPPH -scavenging activity of the compounds was expressed as the percentage reduction of the absorbance values of the initial DPPH solution ( DPPH%). N DGA and BHT were used as reference comp ounds. […]

[3] = Reduction of hydrogen peroxide; type: biochemical; conditions: compound 0.1 mM, 10 min, pH 7.4
Description: as §1, §2, §3
S1.1 Determination of the reducing activity of the radical DPPH […]
S1.3 Reduction of hydrogen peroxide
The ability of the com pounds to reduce hydrogen peroxide (H2O2) was est imated according to the method descr ibed in the literature [S2]. The reaction mixture contained 20 μL of each of the tested compounds (0.1 mM) and 5 μL H2O 2 solution (40 mM) in phosphate buffer (50 mM, pH = 7.4). The absorbance was measure d at 230 nm after 10 min.
The antioxidant activity (reduction of hydrogen peroxide) of the compounds wa s […]
expressed as the percentage decrease of t he init ial H 2O2 solution (H 2O2%). L-ascor b ic ac id (or vitamin C) was use d as a standard. […]
[DNA] = [DNA] + 1 (eq. S1) […]
where [DNA] is the concentration of DNA in base pa irs, εA = Aobsd/[compound ], εf = the extinction coefficient for the free compound and ε b = the extinction coefficient for the compound in the fully bound form. Kb is given by the ratio of slope to the y intercept in plots [DNA]/(εA-εf) versus[DNA].
S2.2CT DNA -binding studie s by viscosity measurements
The interaction of compounds with DNA has been evaluated via the study of the CT DNA viscosity ([DNA] = 0.1 mΜ) in a buffer solution (150 mM NaCl and 15 mM trisodium citrate at pH 7.0) in the presence of increasing amount of complexes (up to the value of r = 0.36). The obtained data are presented as (η/η 0)1/3 versus r, where η is the viscosity of DNA in the presence of the compound, and η0 is the viscosity of DNA alone in buffer solution.
S2.3 EB -displa cement studie s
The competition of the complexes with EB was investigated by fluorescence emission spectroscopy in order to examine whether the compounds can displace EB from its DNA-EB conjugate. The CT DNA-EB complex was formed by pre-treating 20 μM EB and 26 μM CT DNA in buffer (150 mM NaCl and 15 mM trisodium citrate at pH = 7.0).
The possible displacement of EB by the compounds and su bseq uently t he ir intercalating effect was studied by the stepwise addition of a certain amount of the solution of each

[4] = design: method as in PMID 35890184; conditions: cited from earlier work
[5] = target: T1, human serum albumin (HSA) (Homo sapiens, UniProt P02768); design: method as in PMID 35890184; conditions: cited from earlier work
T1 construct: purchased Sigma–Aldrich Co

[6] = design: method as in PMID 35890184; conditions: cited from earlier work; remark: listed apart in the source
[7] = design: method as in PMID 35890184; conditions: cited from earlier work; remark: listed apart in the source
[8] = system: CT DNA; conditions: cited from earlier work
[9] = target: T2, bovine serum albumin (BSA) (Bos taurus, UniProt P02769); design: method as in PMID 35890184; conditions: cited from earlier work
T2 construct: purchased Sigma–Aldrich Co

[10] = system: EB–DNA conjugate (CT DNA); design: method as in PMID 35890184; conditions: cited from earlier work

T2 sequence (P02769 25-607): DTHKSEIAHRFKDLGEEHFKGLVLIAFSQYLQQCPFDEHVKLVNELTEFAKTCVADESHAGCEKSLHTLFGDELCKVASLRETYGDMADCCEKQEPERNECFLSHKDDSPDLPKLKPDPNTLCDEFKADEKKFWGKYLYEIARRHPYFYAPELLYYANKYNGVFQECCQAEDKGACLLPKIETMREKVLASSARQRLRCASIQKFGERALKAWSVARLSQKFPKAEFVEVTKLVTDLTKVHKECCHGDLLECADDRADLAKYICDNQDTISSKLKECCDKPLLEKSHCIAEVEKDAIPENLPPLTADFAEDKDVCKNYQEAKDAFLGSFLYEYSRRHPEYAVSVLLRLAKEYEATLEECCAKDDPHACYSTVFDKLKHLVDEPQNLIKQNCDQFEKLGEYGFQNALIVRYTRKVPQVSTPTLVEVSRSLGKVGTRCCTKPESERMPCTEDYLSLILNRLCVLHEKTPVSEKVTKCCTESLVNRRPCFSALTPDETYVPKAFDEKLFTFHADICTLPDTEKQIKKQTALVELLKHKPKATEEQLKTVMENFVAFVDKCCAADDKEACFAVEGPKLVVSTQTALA
T1 sequence (P02768 25-609): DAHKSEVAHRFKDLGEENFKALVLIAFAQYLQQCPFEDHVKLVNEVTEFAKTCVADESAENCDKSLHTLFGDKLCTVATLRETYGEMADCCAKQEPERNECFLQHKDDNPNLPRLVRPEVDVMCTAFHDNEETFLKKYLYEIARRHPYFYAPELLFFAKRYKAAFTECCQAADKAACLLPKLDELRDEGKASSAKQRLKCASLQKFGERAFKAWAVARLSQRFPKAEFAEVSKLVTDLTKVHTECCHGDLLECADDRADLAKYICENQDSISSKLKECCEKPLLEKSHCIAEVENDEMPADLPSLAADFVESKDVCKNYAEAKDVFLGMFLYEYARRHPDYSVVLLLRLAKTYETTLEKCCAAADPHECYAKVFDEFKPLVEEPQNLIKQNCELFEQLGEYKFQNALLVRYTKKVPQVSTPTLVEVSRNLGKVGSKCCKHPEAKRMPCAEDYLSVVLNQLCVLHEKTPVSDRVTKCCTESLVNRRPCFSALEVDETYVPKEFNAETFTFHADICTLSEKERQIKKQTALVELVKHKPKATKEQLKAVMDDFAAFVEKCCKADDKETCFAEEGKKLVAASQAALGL

Cc1c(C)c2c(c(C)c1O)CCC(C)(C(=O)O)O2 (stereo not drawn) [Trolox, 6–hydroxy–2,5,7,8–tetramethylchromane–2–carboxylic acid, reference compound]
ABTS%, % ABTS–scavenging activity [1]: 98.10 ± 0.48%

Cc1cc(C(C)(C)C)c(O)c(C(C)(C)C)c1 [BHT, butylated hydroxytoluene, reference compound]
DPPH% (30 min), % DPPH–scavenging ability [2]: 61.30 ± 1.16% | DPPH% (60 min), % DPPH–scavenging ability [2]: 79.78 ± 1.12%

O=C1O[C@H]([C@@H](O)CO)C(O)=C1O [L–ascorbic acid, reference compound]
H2O2%, H2O2–reducing activity [3]: 60.80 ± 0.20%

O=Cc1cc(F)ccc1O [5–F–saloH, 5–fluoro–salicylaldehyde]
ABTS%, % ABTS–scavenging activity [4]: 19.57 ± 0.58% | HSA-binding constant K [5]: 4.65 (±0.35) × 10^4 M^−1 | HSA-quenching constant kq [5]: 1.96 (±0.07) × 10^12 M^−1 s^−1 | ΔΙ/Ιο, quenching of the HSA fluorescence [5]: 25.7% | % relative HSA fluorescence emission intensity I/Io remaining (% of initial) ([5]; final value): 74.3% | H2O2%, H2O2–reducing activity [6]: 71.84 ± 0.95% | DPPH% (30 min), % DPPH–scavenging ability ([7]; 30 min): 3.96 ± 1.16% | DPPH% (60 min), % DPPH–scavenging ability ([7]; 60 min): 5.56 ± 1.06% | ΔA/Aο, percentage of hyper-/hypo-chromism upon addition of CT DNA ([8]; band at 334 nm): −30% | ΔA/Aο, percentage of hyper-/hypo-chromism upon addition of CT DNA ([8]; band at 421 nm): > +50% | BSA-binding constant K [9]: 4.31 (±0.31) × 10^4 M^−1 | BSA-quenching constant kq [9]: 1.98 (±0.08) × 10^12 M^−1 s^−1 | ΔΙ/Ιο, quenching of the BSA fluorescence [9]: 25.7% | % relative BSA fluorescence emission intensity I/Io remaining (% of initial) ([9]; final value): 74.3% | EB–DNA quenching constant kq [10]: 1.73 (±0.05) × 10^12 M^−1 s^−1 | Stern–Volmer constant Ksv (EB–DNA) [10]: 3.79 (±0.11) × 10^4 M^−1 | ΔΙ/Ιο, percentage of EB–DNA fluorescence quenching [10]: 51.3% | EB–DNA relative fluorescence emission intensity I/Io remaining (% of initial) ([10]; λemission = 592 nm, final value): 48.7%

CC(Cc1ccc(O)c(O)c1)C(C)Cc1ccc(O)c(O)c1 (stereo not drawn) [NDGA, nordihydroguaiaretic acid, reference compound]
DPPH% (30 min), % DPPH–scavenging ability [2]: 87.08 ± 0.12% | DPPH% (60 min), % DPPH–scavenging ability [2]: 87.47 ± 0.12%
